pIC50: −log10 of the molar value.
Target: T1, 3',5'-cyclic-AMP phosphodiesterase 4B (Homo sapiens, UniProt Q07343)
T1 construct: gene PDE4B
Assay: In Vitro Detection of the Inhibitory Activity of Compounds Against PDE 4B Enzyme
Method: The recombinant human PDE4B enzyme and enzyme substrate (1 μM cAMP) were each dissolved in newly prepared experimental buffer solution;2. The PDE4B enzyme buffer solution was transferred into reaction wells;3. The compound which was dissolved in 100% DMSO was added to the reaction wells containing PDE4B enzyme buffer solution by acoustic technique (echo 550; […]) and the mixture was incubated for 10 minutes at room temperature;4. The enzyme substrate buffer solution was added to the above reaction wells to initiate reaction;5. The resulting mixture was incubated at room temperature for 1 hour;6. The detection mixture (Transcreener AMP2/GMP2 antibody and AMP2/GMP2 AlexaFluor633 tracer) was added to stop the reaction, and the resulting mixture was incubated for 90 minutes while slowly mixing.

T1 sequence (Q07343 whole entry, looked up): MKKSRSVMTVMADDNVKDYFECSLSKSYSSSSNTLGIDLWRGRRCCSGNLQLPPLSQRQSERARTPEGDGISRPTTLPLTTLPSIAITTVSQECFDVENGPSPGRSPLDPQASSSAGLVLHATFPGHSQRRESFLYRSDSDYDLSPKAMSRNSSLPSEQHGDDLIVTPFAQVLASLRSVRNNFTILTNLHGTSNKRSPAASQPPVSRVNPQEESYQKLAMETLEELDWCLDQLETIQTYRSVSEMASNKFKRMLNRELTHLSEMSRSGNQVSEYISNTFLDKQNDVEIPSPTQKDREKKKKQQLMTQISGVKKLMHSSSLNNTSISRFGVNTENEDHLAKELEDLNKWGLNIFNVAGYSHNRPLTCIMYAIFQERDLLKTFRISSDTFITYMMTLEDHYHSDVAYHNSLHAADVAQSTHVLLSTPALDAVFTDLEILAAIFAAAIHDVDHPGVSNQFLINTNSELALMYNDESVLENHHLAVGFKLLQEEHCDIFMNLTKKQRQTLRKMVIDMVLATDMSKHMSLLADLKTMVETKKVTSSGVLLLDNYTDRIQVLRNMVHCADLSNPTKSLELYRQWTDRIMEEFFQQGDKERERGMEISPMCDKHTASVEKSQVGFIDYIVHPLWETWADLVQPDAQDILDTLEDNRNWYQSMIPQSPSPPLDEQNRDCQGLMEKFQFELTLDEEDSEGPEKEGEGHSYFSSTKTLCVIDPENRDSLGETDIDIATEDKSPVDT

pIC50 | SMILES
9.25 | CCOc1cc2c(cc1OC)-c1c/c(=N\c3c(C)cc(C)cc3C)n(CCNC(=O)c3nnc[nH]3)c(=O)n1CC2 [US11993596, Compound WX015]
8.66 | CCOc1cc2c(cc1OC)-c1c/c(=N\c3c(C)cc(C)cc3C)n(CCNc3nc[nH]n3)c(=O)n1CC2 [US11993596, Compound WX003]
8.57 | CCOc1cc2c(cc1OC)-c1c/c(=N\c3c(C)cc(C)cc3C)n(CCC(=O)Nc3nnc[nH]3)c(=O)n1CC2 [US11993596, Compound WX054]
8.19 | CCOc1cc2c(cc1OC)-c1c/c(=N\c3c(C)cc(C)cc3C)n(CCN3CCOC3=O)c(=O)n1CC2 [US11993596, Compound WX001]
8.24 | CCOc1cc2c(cc1OC)-c1c/c(=N\c3c(C)cc(C)cc3C)n(CCNc3nncs3)c(=O)n1CC2 [US11993596, Compound WX005]

SMILES | pIC50
CCOc1cc2c(cc1OC)-c1c/c(=N\c3c(C)cc(C)cc3C)n(CCN(O)C(=O)c3cnn[nH]3)c(=O)n1CC2 [US11993596, Compound WX064] | 8.85

Source: BindingDB's records for patent US11993596 (Chia Tai Tianqing Pharmaceutical Group, 2024)
